Experiments:
[1] = system: Hypertensive Intraocular Pressure Induced by Laser Irradiation; assay: Test Example 5: hypertensive intraocular pressure induced by laser irradiation, pigmented rabbits; type: in vivo; conditions: 0.5% aqueous solution
Protocol: Intraocular Pressure Reducing Activity of 0.5% Aqueous Solution of Amosulalol Hydrochloride on Hypertensive Intraocular Pressure Induced by Laser Irradiation in Pigmented Rabbits
With 5 male pigmented rabbits weighing about 2 kg used as test animals, 50 μl of 0.5% aqueous solution of amosulalol hydrochloride was applied in a 50 μl portion to one eye of each rabbit, with 50 μl of physiological saline being given to the other. 30 min later, a laser beam was irradiated onto 6 different spots (spot size: 200 μm, power of 0.5 W, for 0.1 sec) of the irises in both eyes in such a manner that the spots were located at an equal distance. Intraocular pressure was measured for both eyes using PTG before instillation as well as before laser irradiation and 15, 30 and 45 min after laser irradiation.
FIG. 7 is a graph showing the intraocular pressure reducing activity of 0.5% aqueous solution of amosulalol hydrochloride on hypertensive intraocular pressure induced by laser irradiation in pigmented rabbits, with time (min) after laser irradiation taken as abscissa and intraocular pressure (mmHg) as ordinate; each value in mean ± S.E. (the number in each case is 8). The signs "a" and "c" designate physiological saline and 0.5% aqueous solution of amosulalol hydrochloride, respectively.

eyeball = assay: Test Example 7 (2)(f): optical microscope evaluation of a sagittal section of the eyeball; type: in vivo, Japanese white rabbits; conditions: 1% and 0.5% ophthalmic solutions, 28 days
Protocol: (2) Ocular local toxicity test in rabbits of 1.0% and 0.5% ophthalmic solutions of amosulalol hydrochloride by consecutive instillation for 28 days:
(§1) With 15 male Japanese white rabbits divided into 3 groups each consisting of 5 rabbits, 1.0% and 0.5% ophthalmic solutions of amosulalol hydrochloride as well as physiological saline as a control were applied in one drop (0.05 ml) per time to the right eye of each rabbit alone, four times a day at a regular interval of 2.5 hours, for 28 days consecutively with the left eye being left untreated.
(f) Evaluation with an optical microscope of a sagittal section of the eyeball;
After completion of the instillation of 1.0% and 0.5% ophthalmic solutions of amosulalol hydrochloride, specimens for optical microscopy were prepared each having a sagittal section of the eyeball from 2 eyes each of the two groups to conduct microscopic examination of the eyelid, conjunctiva, cornea, anterior segment, iris, crystalline lens vitreous body, retinochoroid membrane, screla and optic nerve.

[2] = system: Hypertensive Intraocular Pressure Induced by Water Loading; assay: Test Example 4: hypertensive intraocular pressure induced by water loading, white rabbits; type: in vivo; conditions: 0.5% aqueous solution
Protocol: Intraocular Pressure Reducing Activity of 0.5% Aqueous Solution of Amosulalol Hydrochloride on Hypertensive Itraocular Pressure Induced by Water Loading White Rabbits
With 5 male white rabbits weighing about 2 kg used as test animals, 50 μl of 0.5% aqueous solution of amosulalol hydrochloride was applied to one eye of each rabbit, with 50 μl of physiological saline being given to the other, and drinking water, 60 ml/kg (37° C.) was loaded by means of an oral probe 30 min later. Intraocular pressure was measured for both eyes using PTG before instillation as well as before water loading and 0.5, 1, 2 and 4 hours after the same.
FIG. 6 is a graph showing the intraocular pressure reducing activity of 0.5% aqueous solution of amosulalol hydrochloride on hypertensive intraocular pressure induced by water loading in white rabbits with time (hour) after instillation taken as abscissa and intraocular pressure (mmHg) as ordinate; each value in mean ± S.E. (number of cases is […]).

[3] = system: Normal Intraocular Pressure; assay: Test Example 3: intraocular pressure, consecutive application for 5 days, pigmented rabbits; type: in vivo; conditions: 0.5% aqueous solution
Protocol: Intraocular Pressure Reducing Activity of Amosulalol Hydrochloride by Consecutive Application for 5 Days on Normal Intraocular Pressure in Pigmented Rabbits
Eight (8) male pigmented rabbits weighing about 2 kg, after having been confirmed to be free from ocular abnormalities, were bred in a breeding room maintained at a temperature of 24± 4° C. and at a relative humidity of 55± 15%, while they were given solid food (Labo RG-RO, manufactured by Nihon Nohsan Kogyo K.K.) at a daily rate of 100 g per rabbit and allowed free access to tap water as drinking water.
For the 8 pigmented rabbits bred by the above procedure, 50 μl of 0.5% aqueous solution of amosulalol hydrochloride was applied to one eye, with 50 μl of physiological saline being given topically to the other. Intraocular pressure was measured before the first instillation and at regular intervals of 1 hour up to 8 hours after application on Days 1 and 5, and before the first instillation and 2 or 3 hours after application on Days 2, 3 and 4, respectively, with intraocular pressure additionally being measured 24 hours after the first instillation on Day 5.
The signs "a" and "c" designate physiological saline, 0.5% aqueous solution of amosulalol hydrochloride, respectively.

[4] = Stability of aqueous solution against heat and light; type: physicochemical
[5] = system: corneal epithelial and endothelial cells; assay: Test Example 7 (2)(e): scanning electron microscope evaluation of corneal epithelial and endothelial cells; type: in vivo, Japanese white rabbits; conditions: 1% and 0.5% ophthalmic solutions, 28 days
Protocol: (2) Ocular local toxicity test in rabbits of 1.0% and 0.5% ophthalmic solutions of amosulalol hydrochloride by consecutive instillation for 28 days: With 15 male Japanese white rabbits divided into 3 groups each consisting of 5 rabbits, 1.0% and 0.5% ophthalmic solutions of amosulalol hydrochloride as well as physiological saline as a control were applied in one drop (0.05 ml) per time to the right eye of each rabbit alone, four times a day at a regular interval of 2.5 hours, for 28 days consecutively with the left eye being left untreated. (e) Evaluation with a scanning electron microscope of corneal epithelial and endothelial cells; After completion of the instillation of 1.0% and 0.5% ophthalmic solutions of amosulalol hydrochloride, morphological observation was done on corneal epithelial and endothelial cells in 3 eyes each of the two groups.

conjunctiva = assay: Test Example 2: conjunctival hyperemia, pigmented rabbits; type: in vivo, pigmented rabbits (Dutch belted rabbits); conditions: concentrations of less than 0.5%
[6] = Test Example 7 (2)(a),(b): general conditions and body weight, 28 days instillation; type: in vivo, Japanese white rabbits; conditions: 1% and 0.5% ophthalmic solutions, 4 times a day
Protocol: as §1, with “(2) Ocular local toxicity test in rabbits of 1.0% and 0.5% ophthalmic solutions of amosulalol hydrochloride by consecutive instillation for 28 days: With” for “With”, “untreated. (a) General conditions; Observation was made on the […] for general conditions once a week. (b) Body weight measurement; Body weight was measured once a week.” for “untreated.”

## COc1ccccc1OCCNCC(O)c1ccc(C)c(S(N)(=O)=O)c1.Cl (stereo not shown) [amosulalol hydrochloride, 5-[1-hydroxy-2-[2-(2-methoxyphenoxy)ethylamino]ethyl]-2-methylbenzenesulfonamide hydrochloride]
[1]; 30 min after instillation, immediately before laser irradiation
  decrease in intraocular pressure before laser irradiation: 4.5 mmHg
[1]; laser irradiation
  suppressory activity against increase of the intraocular pressure: exhibits suppressory activity against increase of the intraocular pressure
[1]; physiological saline increased by 7.9 mmHg about 15 min after irradiation
  intraocular pressure after laser irradiation: increased to almost the same level as before instillation
eyeball
  optical microscope evaluation of a sagittal section of the eyeball: no abnormalities
[2]; 30 min after water loading, physiological saline 8.7 mmHg
  increase in intraocular pressure after water loading: 3.4 mmHg
[2]; water loading
  effect on increase in intraocular pressure compared with physiological saline: significantly reduced the increase in intraocular pressure
[3]; Day 1
  return of intraocular pressure to the initial value (time): 24 h
[3]; Day 1, 2 hours after the first instillation
  maximum drop in intraocular pressure: 4.8 mmHg
[3]; Day 1, second instillation 4 hours later
  further decrease in intraocular pressure by second instillation: not found to bring about any further decrease in intraocular pressure
[3]; Day 2, 2 hours after instillation
  decrease in intraocular pressure: significant decrease in intraocular pressure
[3]; Day 3
  decrease in intraocular pressure: no significant intraocular pressure drop
[3]; Day 4
  decrease in intraocular pressure: significant decrease in intraocular pressure
[3]; Day 5, any measuring time
  decrease in intraocular pressure: almost the same degree of intraocular pressure decrease as on Day 1
[3]; three times a day for 5 days
  tachyphylaxis: free from tachyphylaxis
[4]
  stability against heat and light: stable
[5]
  scanning electron microscope evaluation of corneal epithelial and endothelial cells: no abnormalities
conjunctiva
  conjunctival hyperemia: merely a slight degree of conjunctival hyperemia
[6]
  body weight measurement: no abnormalities
  general conditions: no abnormalities
